Test results as given in the NIST ThermoML archive (doi:10.1016/j.jct.2004.10.011).

Assay: xn = mol fraction of the nth substance listed
Conditions: Liquid, Vibrating tube method, x1 = 1

Cc1ccccc1 [toluene] + CCC(=O)c1ccccc1
mass density [kg/m3]
Conditions | 298.15 K | 308.15 K | 318.15 K | 328.15 K
100 kPa | 862.1 | 853 | 843.8 | 834.5
2130 kPa | 863.6 | 854.5 | 845.6 | 836.5
4150 kPa | 865.2 | 856.2 | 847.3 | 838.3
6180 kPa | 866.7 | 857.8 | 849 | 840.1
8210 kPa | 868.2 | 859.3 | 850.6 | 841.8
10230 kPa | 869.6 | 860.9 | 852.3 | 843.5
11250 kPa | 870.4 | 861.7 | 853.1 | 844.4
12260 kPa | 871.1 | 862.4 | 853.9 | 845.2
14290 kPa | 872.5 | 863.9 | 855.4 | 846.9
16310 kPa | 873.9 | 865.4 | 857 | 848.6
18340 kPa | 875.3 | 866.8 | 858.5 | 850.1
20370 kPa | 876.7 | 868.2 | 860 | 851.7
22390 kPa | 878 | 869.6 | 861.5 | 853.3
24420 kPa | 879.3 | 871 | 862.9 | 854.8
26450 kPa | 880.6 | 872.4 | 864.4 | 856.3
28470 kPa | 881.9 | 873.8 | 865.8 | 857.8
29490 kPa | 882.5 | 874.4 | 866.5 | 858.5
30500 kPa | 883.2 | 875 | 867.2 | 859.3
32530 kPa | 884.4 | 876.3 | 868.5 | 860.7
34550 kPa | 885.6 | 877.6 | 869.9 | 862.1
36580 kPa | 886.8 | 878.9 | 871.2 | 863.5
38600 kPa | 888 | 880.1 | 872.5 | 864.9
39620 kPa | 888.6 | 880.7 | 873.2 | 865.5
